Reference: ChEMBL document CHEMBL1201862, “PubChem BioAssay data set” (2004)
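Compound exposure: 48 hours, 5 concentrations, 96-well plates. GI50: concentration for 50% inhibition of growth.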 Activity calls are given as the source filed them. Rule as the data show it: active = GI50 up to about 1.1 µM and inactive = higher.

Experiments:
Assay in all cases: NCI tumour cell line growth inhibition, 48 h
OVCAR-4 = tested on: OVCAR-4
HOP-92 = tested on: HOP-92
OVCAR-5 = tested on: OVCAR-5
UACC-257 = tested on: UACC-257
MOLT-4 = tested on: MOLT-4
UACC-62 = tested on: UACC-62
SK-MEL-5 = tested on: SK-MEL-5
HOP-18 = tested on: HOP-18
M19-MEL = tested on: M19-MEL
786-0 = tested on: 786-0
KM-20L2 = tested on: KM-20L2
K562 = tested on: K562
HL-60 = tested on: HL-60
SN12C = tested on: SN12C
SF-268 = tested on: SF-268
SNB-19 = tested on: SNB-19
SK-OV-3 = tested on: SK-OV-3
TK-10 = tested on: TK-10
LXFL 529 = tested on: LXFL 529
U-251 = tested on: U-251
LOX IMVI = tested on: LOX IMVI
KM12 = tested on: KM12
EKVX = tested on: EKVX
A549 = tested on: A549
HCT-15 = tested on: HCT-15
M14 = tested on: M14
A498 = tested on: A498
NCI-H522 = tested on: NCI-H522
CAKI-1 = tested on: CAKI-1
RXF 393 = tested on: RXF 393
RPMI-8226 = tested on: RPMI-8226
XF498 = tested on: XF498
HT-29 = tested on: HT-29
OVCAR-3 = tested on: OVCAR-3
NCI-H460 = tested on: NCI-H460
IGROV-1 = tested on: IGROV-1
SNB-75 = tested on: SNB-75
SR = tested on: SR
SF-539 = tested on: SF-539
HCC 2998 = tested on: HCC 2998
UO-31 = tested on: UO-31
RXF 631 = tested on: RXF 631
OVCAR-8 = tested on: OVCAR-8
DLD-1 = tested on: DLD-1
HOP-62 = tested on: HOP-62
COLO 205 = tested on: COLO 205
NCI-H226 = tested on: NCI-H226
DMS-273 = tested on: DMS-273
SNB-78 = tested on: SNB-78
Malme-3M = tested on: Malme-3M
DMS-114 = tested on: DMS-114
SF-295 = tested on: SF-295
SW-620 = tested on: SW-620
HCT-116 = tested on: HCT-116
NCI-H23 = tested on: NCI-H23
CCRF-CEM = tested on: CCRF-CEM
ACHN = tested on: ACHN
SK-MEL-2 = tested on: SK-MEL-2
SK-MEL-28 = tested on: SK-MEL-28

CSC(=S)c1ccc(C(=S)SC)cc1
GI50 (OVCAR-4): > 100 µM (inactive) | GI50 (HOP-92): > 100 µM (inactive) | GI50 (OVCAR-5): > 100 µM (inactive) | GI50 (UACC-257): > 100 µM (inactive) | GI50 (MOLT-4): > 100 µM (inactive) | GI50 (UACC-62): > 100 µM (inactive) | GI50 (SK-MEL-5): > 100 µM (inactive) | GI50 (HOP-18): > 100 µM (inactive) | GI50 (M19-MEL): > 100 µM (inactive) | GI50 (786-0): > 100 µM (inactive) | GI50 (KM-20L2): > 100 µM (inactive) | GI50 (K562): > 100 µM (inactive) | GI50 (HL-60): > 100 µM (inactive) | GI50 (SN12C): > 100 µM (inactive) | GI50 (SF-268): > 100 µM (inactive) | GI50 (SNB-19): > 100 µM (inactive) | GI50 (SK-OV-3): > 100 µM (inactive) | GI50 (TK-10): > 100 µM (inactive) | GI50 (LXFL 529): > 100 µM (inactive) | GI50 (U-251): > 100 µM (inactive) | GI50 (LOX IMVI): > 100 µM (inactive) | GI50 (KM12): > 100 µM (inactive) | GI50 (EKVX): > 100 µM (inactive) | GI50 (A549): > 100 µM (inactive) | GI50 (HCT-15): > 100 µM | GI50 (M14): > 100 µM (inactive) | GI50 (A498): > 100 µM (inactive) | GI50 (NCI-H522): > 100 µM (inactive) | GI50 (CAKI-1): > 100 µM (inactive) | GI50 (RXF 393): > 100 µM (inactive) | GI50 (RPMI-8226): > 100 µM (inactive) | GI50 (XF498): > 100 µM (inactive) | GI50 (HT-29): > 100 µM (inactive) | GI50 (OVCAR-3): > 100 µM (inactive) | GI50 (NCI-H460): > 100 µM (inactive) | GI50 (IGROV-1): > 100 µM (inactive) | GI50 (SNB-75): > 100 µM (inactive) | GI50 (SR): > 100 µM (inactive) | GI50 (SF-539): > 100 µM (inactive) | GI50 (HCC 2998): > 100 µM (inactive) | GI50 (UO-31): > 100 µM (inactive) | GI50 (RXF 631): > 100 µM (inactive) | GI50 (OVCAR-8): > 100 µM (inactive) | GI50 (DLD-1): > 100 µM (inactive) | GI50 (HOP-62): > 100 µM (inactive) | GI50 (COLO 205): > 100 µM (inactive) | GI50 (NCI-H226): > 100 µM (inactive) | GI50 (DMS-273): > 100 µM (inactive) | GI50 (SNB-78): > 100 µM (inactive) | GI50 (Malme-3M): > 100 µM (inactive) | GI50 (DMS-114): > 100 µM (inactive) | GI50 (SF-295): > 100 µM (inactive) | GI50 (SW-620): > 100 µM (inactive) | GI50 (HCT-116): > 100 µM (inactive) | GI50 (NCI-H23): > 100 µM (inactive)

c1ccc2c(CNCCCN3CCN(CCCNCc4cccc5ccccc45)CC3)cccc2c1
GI50 (OVCAR-4): 2.21 µM (inactive) | GI50 (HOP-92): 1.74 µM (inactive) | GI50 (OVCAR-5): 2.15 µM (inactive) | GI50 (UACC-257): 1.92 µM (inactive) | GI50 (CCRF-CEM): 1.24 µM (inactive) | GI50 (MOLT-4): 1.22 µM (inactive) | GI50 (UACC-62): 1.79 µM (inactive) | GI50 (SK-MEL-5): 1.74 µM (inactive) | GI50 (HOP-18): 6.21 µM (inactive) | GI50 (M19-MEL): 1.89 µM (inactive) | GI50 (786-0): 1.91 µM (inactive) | GI50 (KM-20L2): 1.7 µM (inactive) | GI50 (K562): 0.299 µM (active) | GI50 (HL-60): 1.44 µM (inactive) | GI50 (SN12C): 3.68 µM (inactive) | GI50 (SF-268): 2.37 µM (inactive) | GI50 (SK-OV-3): 2.39 µM (inactive) | GI50 (TK-10): 1.5 µM (inactive) | GI50 (LXFL 529): 1.77 µM (inactive) | GI50 (U-251): 1.73 µM (inactive) | GI50 (LOX IMVI): 1.35 µM (inactive) | GI50 (KM12): 1.96 µM (inactive) | GI50 (EKVX): 3.6 µM (inactive) | GI50 (ACHN): 2.75 µM (inactive) | GI50 (A549): 2.01 µM (inactive) | GI50 (HCT-15): 1.8 µM | GI50 (M14): 1.18 µM (inactive) | GI50 (A498): 10.9 µM (inactive) | GI50 (NCI-H522): 1.59 µM (inactive) | GI50 (CAKI-1): 1.72 µM (inactive) | GI50 (RXF 393): 1.08 µM (active) | GI50 (RPMI-8226): 1.03 µM (active) | GI50 (XF498): 1.77 µM (inactive) | GI50 (HT-29): 1.65 µM (inactive) | GI50 (SK-MEL-2): 1.65 µM (inactive) | GI50 (SK-MEL-28): 1.69 µM (inactive) | GI50 (OVCAR-3): 2.89 µM (inactive) | GI50 (NCI-H460): 1.41 µM (inactive) | GI50 (IGROV-1): 3.07 µM (inactive) | GI50 (SNB-75): 1.74 µM (inactive) | GI50 (SR): 0.655 µM (active) | GI50 (SF-539): 1.61 µM (inactive) | GI50 (UO-31): 1.82 µM (inactive) | GI50 (RXF 631): 1.13 µM (inactive) | GI50 (OVCAR-8): 1.77 µM (inactive) | GI50 (DLD-1): 1.75 µM (inactive) | GI50 (HOP-62): 19.8 µM (inactive) | GI50 (COLO 205): 2.06 µM (inactive) | GI50 (NCI-H226): 2.81 µM (inactive) | GI50 (DMS-273): 1.97 µM (inactive) | GI50 (SNB-78): 2.21 µM (inactive) | GI50 (Malme-3M): 2.06 µM (inactive) | GI50 (DMS-114): 2 µM (inactive) | GI50 (SF-295): 1.77 µM (inactive) | GI50 (SW-620): 1.77 µM (inactive) | GI50 (HCT-116): 1.51 µM (inactive) | GI50 (NCI-H23): 11.4 µM (inactive)
